Data taken from publication PMC4728068, “Mixture Effects of Estrogenic Pesticides at the Human Estrogen Receptor α and β” (PLoS ONE, 2016).
In brackets after ≈: the same amount, converted by molar mass.

Legend:
[1] = molecular target: T1, hERβ (Homo sapiens, UniProt Q92731); assay: ERβ CALUX assay (U2-OS cell-based luciferase reporter gene); settings: for estrogenic activity at the hERβ in the ERβ CALUX assay (in words): applied alone; for ERβ CALUX EC01 / ERβ CALUX EC10: single substances; for ERβ CALUX EC01: 1% effect (of 1 nM E2); for ERβ CALUX EC10: 10% effect (of 1 nM E2)
T1 construct: expressed in transfected cells; host or cells: human U2-OS cells
Method: (§1) The ERα and ERβ CALUX assay were performed to evaluate the effect of the test substances on the hERα and hERβ as described by van der Burg et al. [21] with slight modifications. The pesticides were tested in three independent experiments, individually and as mixtures, in triplicates in 96-well plates. DMSO was used as solvent and was present in the test medium at a maximal concentration of 0.2% v/v. Solvent controls were included in each plate. […] The same plate also contained 3 μM 17α-methyltestosterone as additional estrogenic control as well as 10 nM corticosterone as negative control. […] A prescreen, in which all test substances were tested for estrogenicity between 0.01 μM and 60 μM, was performed. The three highest test substance concentrations and controls were checked for their ability to affect cell membrane integrity by quantification of the lactate dehydrogenase leakage (LDH) with the CytoTox-ONE™ Homogeneous Membrane Integrity Assay (Promega, Madison, WI, USA), which was performed as recommended by the manufacturer. Those test substance concentrations leading to a decline of the effect after a maximum was reached as well as those leading to insolubility were excluded from further experiments.
(§2) Normalized concentration-response data from the YES, ERα and ERβ CALUX assays were analyzed by nonlinear regression after the x-axis with the test substance concentrations was log-transformed. […] All mathematical/statistical analyses were performed using R version 3.1.2 (R Foundation for Statistical Computing, Vienna, Austria).

[2] = Insolubility in the YES assay medium (turbidity at 690 nm, cell-free control plate); settings: for solubility: kinetic from dmso stock
From the text: (§3) It should be taken into account that an increased turbidity could also mask cytotoxicity.
The concentrations of the test substances to be tested were limited depending on their solubility. […] A decrease of turbidity in the YES assay was assumed to be equivalent to an inhibition of yeast cell growth.

[3] = test system: MCF-7 cells; parameters: method as in PMID 10789375; settings: cited from earlier work
[4] = molecular target: T2, human estrogen receptor α (hERα) (Homo sapiens, UniProt P03372); assay: Yeast-based estrogen screen (YES) assay, β-galactosidase reporter gene; format: cell-based; settings: for YES EC01 / YES EC10: single substances; for YES EC01: concentration needed to elicit a 1% effect of 1 nM E2; for YES EC10: concentration needed to elicit a 10% effect of 1 nM E2
T2 construct: expressed in transfected cells
Method: as §3, §2

[5] = molecular target: T3, hERα (Homo sapiens, UniProt P03372); assay: YES assay in combination with a saturating concentration of E2 (1 nM): anti-estrogenic or potentiating effects; format: cell-based, yeast; settings: for maximum to which the effect of 1 nM E2 was enhanced: YES assay, combined with 1 nM E2, normalized to 1 nM E2; for effect when combined with 1 nM E2 in the YES assay (in words): saturating 1 nM E2
Method: Each pesticide and pesticide mixture was tested in quadruplicate in at least five experiments.

[6] = molecular target: T3, hERα; assay: ERα CALUX assay (U2-OS cell-based luciferase reporter gene); parameters: expressed in transfected cells; host or cells: human U2-OS cells; settings: for ERα CALUX EC01: 1% effect (of 1 nM E2); for ERα CALUX EC10: 10% effect (of 1 nM E2)
Method: as §1, §2

[7] = test system: MCF-7 cells; settings: cited from earlier work
[8] = test system: yeast cells; assay: Cytotoxicity in the YES assay (decrease in optical density/turbidity at 690 nm); format: cell-based; settings: assumed equivalent to inhibition of yeast cell growth, data not shown
[9] = test system: miR-21; settings: cited from earlier work
[10] = molecular target: T3, hERα; settings: in combination with 3 pM E2
[11] = test system: estrogen receptor; parameters: method as in PMID 11884232; settings: in combination with a saturating concentration of E2; cited from earlier work
[12] = test system: MCF-7 cells; settings: with or without E2; 27 (pirimicarb), ref 11 (propamocarb); cited from earlier work

T1 sequence (Q92731 whole entry): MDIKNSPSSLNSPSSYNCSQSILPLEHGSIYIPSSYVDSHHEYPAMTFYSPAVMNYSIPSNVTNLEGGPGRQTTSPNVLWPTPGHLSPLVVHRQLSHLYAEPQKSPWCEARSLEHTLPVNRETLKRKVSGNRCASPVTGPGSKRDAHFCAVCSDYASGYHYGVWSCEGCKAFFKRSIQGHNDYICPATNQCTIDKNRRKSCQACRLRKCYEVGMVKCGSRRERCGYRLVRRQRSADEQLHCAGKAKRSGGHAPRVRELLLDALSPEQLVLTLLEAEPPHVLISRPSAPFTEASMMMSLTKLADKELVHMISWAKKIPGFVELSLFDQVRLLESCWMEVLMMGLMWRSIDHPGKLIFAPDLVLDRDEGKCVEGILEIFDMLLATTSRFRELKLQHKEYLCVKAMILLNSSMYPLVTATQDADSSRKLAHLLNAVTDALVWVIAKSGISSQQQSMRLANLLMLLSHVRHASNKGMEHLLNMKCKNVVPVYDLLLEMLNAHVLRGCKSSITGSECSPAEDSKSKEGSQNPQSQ
T2 sequence (P03372 whole entry): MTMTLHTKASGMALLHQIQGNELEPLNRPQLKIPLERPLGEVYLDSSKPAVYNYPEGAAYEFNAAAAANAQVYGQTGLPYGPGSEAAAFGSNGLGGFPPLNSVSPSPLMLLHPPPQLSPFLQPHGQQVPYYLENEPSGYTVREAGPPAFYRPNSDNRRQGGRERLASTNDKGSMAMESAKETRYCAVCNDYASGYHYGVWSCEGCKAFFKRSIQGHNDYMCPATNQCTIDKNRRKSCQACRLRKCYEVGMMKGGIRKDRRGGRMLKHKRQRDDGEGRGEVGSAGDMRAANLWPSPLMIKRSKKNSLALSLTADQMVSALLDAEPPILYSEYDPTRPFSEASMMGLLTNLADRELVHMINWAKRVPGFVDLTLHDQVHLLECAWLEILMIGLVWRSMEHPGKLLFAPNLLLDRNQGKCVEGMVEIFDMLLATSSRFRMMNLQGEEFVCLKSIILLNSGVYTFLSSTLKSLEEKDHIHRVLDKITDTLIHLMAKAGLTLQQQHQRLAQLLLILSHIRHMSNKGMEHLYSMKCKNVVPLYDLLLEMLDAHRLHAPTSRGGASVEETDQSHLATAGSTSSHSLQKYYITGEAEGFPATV
T3 sequence (P03372 whole entry): as above

Clc1ccc(C(c2ccccc2Cl)C(Cl)(Cl)Cl)cc1 (stereo not shown) [2,4’-DDT, 2,4’-dichlorodiphenyltrichloroethane]
estrogenic activity at the hERβ in the ERβ CALUX assay (in words) [1]: dose-dependent estrogenic activity | ERβ CALUX EC01 [1]: 0.055 µM | ERβ CALUX EC10 [1]: 0.603 µM

Clc1ccc(C(c2ccc(Cl)cc2)C(Cl)(Cl)Cl)cc1 [4,4’-DDT, 4,4’- dichlorodiphenyltrichloroethane]
estrogenic activity at the hERβ in the ERβ CALUX assay (in words) [1]: dose-dependent estrogenic activity | ERβ CALUX EC01 [1]: 1.02 µM | concentrations leading to insolubility (tested in the YES assay) ([2]; YES assay medium): 50 to 500 µM

CCOP(=S)(OCC)Oc1nc(Cl)c(Cl)cc1Cl [chlorpyrifos]
effect in MCF-7 proliferation assay compared with E2 [3]: without exceeding the effect of E2 | YES EC01 [4]: 79.4 nM | maximum to which the effect of 1 nM E2 was enhanced [5]: 1.84 | ERα CALUX EC01 ([6]; single substances): 617 nM | ERα CALUX EC10 ([6]; single substances): 3.47 µM | solubility [2]: 100 to 1000 µM (≈ 35.1 to 351 µg/mL)

OC(c1ccc(Cl)cc1)(c1cncnc1)c1ccccc1Cl (stereo not shown) [fenarimol]
estrogenic activity at the hERβ in the ERβ CALUX assay (in words) [1]: dose-dependent estrogenic activity | ERβ CALUX EC01 [1]: 3.63 µM | ERβ CALUX EC10 [1]: 13.5 µM | effect in MCF-7 proliferation assay compared with E2 [3]: without exceeding the effect of E2 | maximum effect normalized to the effect of 1 nM E2 ([4]; single substance, YES assay): 2.69 | YES EC01 [4]: 11700 nM | YES EC10 [4]: 21.9 µM | maximum to which the effect of 1 nM E2 was enhanced [5]: 4.36 | maximum effect relative to the effect of 0.1 nM E2 ([6]; single substances, ERα CALUX assay): 1.17 | ERα CALUX EC01 ([6]; single substances): 794 nM | ERα CALUX EC10 ([6]; single substances): 2.82 µM

CC1(C(=O)Nc2ccc(O)c(Cl)c2Cl)CCCCC1 [fenhexamid]
estrogenic activity at the hERβ in the ERβ CALUX assay (in words) [1]: dose-dependent estrogenic activity | ERβ CALUX EC01 [1]: 1.17 µM | ERβ CALUX EC10 [1]: 5.01 µM | E2-induced cell proliferation in MCF-7 cells [7]: inhibition of E2-induced cell proliferation | concentrations decreasing turbidity by more than 30% in comparison to the solvent control [8]: ≥ 500 µM | solubility [2]: 100 µM (≈ 30.2 µg/mL) | miR-21 expression in breast cancer cells [9]: increase of miR-21 expression

N#Cc1c[nH]cc1-c1cccc2c1OC(F)(F)O2 [fludioxonil]
E2-induced cell proliferation in MCF-7 cells [7]: inhibition of E2-induced cell proliferation | YES EC01 [4]: 832 nM | YES EC10 [4]: 26.3 µM | inhibition of the E2 effect in the YES assay ([5]; in combination with 1 nM E2): 44% | effect when combined with 1 nM E2 in the YES assay (in words) [5]: concentration-dependent anti-estrogenic effects | ERα CALUX EC01 ([6]; single substances): 363 nM | ERα CALUX EC10 ([6]; single substances): 1.26 µM | solubility [2]: 100 to 500 µM (≈ 24.8 to 124 µg/mL) | anti-estrogenic effect in the ERα CALUX assay (in words) [10]: an anti-estrogenic effect was not observed | miR-21 expression in breast cancer cells [9]: increase of miR-21 expression

Cc1nc(N(C)C)nc(OC(=O)N(C)C)c1C [pirimicarb]
effect in transactivation assay with MCF-7 BOS cells [11]: induced a stronger effect | estrogenic activity in the YES assay (in words) ([4]; applied alone): negative | proliferation of MCF-7 cells in the E-Screen [12]: did not stimulate the proliferation of MCF-7 cells | effect when combined with 1 nM E2 in the YES assay (in words) [5]: negative | estrogenic activity in the ERα CALUX assay (in words) ([6]; applied alone): negative

CCCOC(=O)NCCCN(C)C [propamocarb]
proliferation of MCF-7 cells in the E-Screen [12]: did not stimulate the proliferation of MCF-7 cells
